This note sets out measurements from patent US12378519B2, “Microfluidic model of the blood brain barrier” (EMULATE, Inc., priority 2015, dated 2025).

Common to all, as to type: cell-based, human
In experiment [1] the test system is neurons seeded in chip.
For experiment [2], the system named is iBMEC barrier function. The experiment is described as follows: TEER measurement on prototype TEER chips under flow. Conditions: exposure of the chips to TNFa after flow, FIG. 14A. How it is done: Cells were plated on tall channel PDMS chips equipped with incorporated gold electrodes on each channel (see FIG. 13A). Post seeding of BMECs, transendothelial electrical resistance was measured by connecting the electrodes to an EVOM2 voltohmmeter (see FIG. 13B). […] The “damaged” chip was a failure due to the TEER-Chips being a prototype.
Higher TEER values generally indicate a tighter barrier, which is typically desirable for a blood-brain barrier.

Experiment [3] has as its system BMECs seeded on a microfluidic device. The experiment is described as follows: Paracellular permeability assay with Dextran-FITC on chip. The note with it: TNF-alpha exposure, FIG. 14B. How it is done: Albumin or Dextran conjugated to a fluorescent probe (e.g., FITC or TRITC) are frequently used to monitor changes in leakage, and thus barrier function. In this case, Dextran-FITC, a green fluorescent molecule of 4 KDa, or sodium fluorescein (a 0.3 KDa molecule), was added to the bottom (“blood side”) channel. Paracellular permeability was calculated by measuring the permeability of the fluorescent molecule on the Top (“brain side”) channel. […] FIG. 14B involves TNF-alpha exposure, but the readout is membrane permeability as measured by Dextran-FITC.

Consider `NC1=N[C@H](O)[C@H]2[C@H]3O[C@]4(O)O[C@@H]([C@@H](O)[C@@]2(N1)[C@@H]4O)[C@]3(O)CO` [TTX, tetrodotoxin], for which, in experiment [1], the “neuronal activity (Ca2+ fluxes, dF/F)” value is “ablates this activity”. Take TNFa: in experiment [2], the “iBMEC barrier function (TEER)” value is reported as “weakening of barrier function”. Moreover, in experiment [3], the “membrane permeability as measured by Dextran-FITC” value was “increase in permeability”.
